# Results reported in publication PMC11289455 (Scientific Reports, 2024).
# Where two headings read alike, the source gives them in different places.
# How the values were obtained:
# [1] = molecular target: T1, 5-HT2A (serotonin 2A receptor) (Homo sapiens, UniProt P28223); experiment: SafetyScreen44: 5-HT2A; type: binding
# T1 construct: purchased Eurofins Cerep SafetyScreen44
# [2] = molecular target: T2, ETA (endothelin receptor subtype A) (Homo sapiens, UniProt P25101); experiment: SafetyScreen44: ETA; type: binding
# T2 construct: purchased Eurofins Cerep SafetyScreen44
# T2 sequence (P25101 21-427): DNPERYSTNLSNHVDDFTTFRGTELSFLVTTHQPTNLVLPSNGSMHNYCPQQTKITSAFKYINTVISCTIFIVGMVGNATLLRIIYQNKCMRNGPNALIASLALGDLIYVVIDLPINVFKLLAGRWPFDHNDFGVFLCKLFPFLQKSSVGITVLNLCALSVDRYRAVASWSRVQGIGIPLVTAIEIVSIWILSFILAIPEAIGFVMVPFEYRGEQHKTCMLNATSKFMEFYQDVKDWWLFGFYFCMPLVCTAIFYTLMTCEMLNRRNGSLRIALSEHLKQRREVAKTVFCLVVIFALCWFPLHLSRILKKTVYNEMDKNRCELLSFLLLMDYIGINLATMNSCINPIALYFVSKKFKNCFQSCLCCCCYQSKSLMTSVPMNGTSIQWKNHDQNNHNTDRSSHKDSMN
# [3] = Nonclinical tissue distribution in monkeys; type: in vivo, monkey; settings: variety of tissues (e.g. colon, ileum, and skin), nonclinical data
# [4] = First-in-human study, pharmacokinetics; type: in vivo; settings: healthy participants
# Description: The purpose of the first-in-human, single-center, randomized, double-blind, placebo-controlled study was to determine the safety, tolerability, pharmacokinetics, and pharmacodynamics of JNJ-77242113 in healthy participants. […] AEs were coded using the Medical Dictionary for Regulatory Activities (Version 23.1).
# Whole blood samples were collected in TruCulture Tubes containing 10 ng/mL IL-2 and 20 ng/mL IL-18 with or without additional IL-23 (0.5 ng/mL, R&D Systems/Biotechne). […] IFNγ was quantified via the V-Plex-plus human IFNγ kit (MSD).
# Mean concentration–time profiles for each treatment/dose group were presented graphically. Descriptive statistics were used to describe demographic and safety data.
# [5] = Rat pharmacokinetic and tissue distribution study, oral dosing
# Description: Table S2. […] Plasma, small intestine, colon, and colon contents were sampled at terminal time points. Tissues and content were homogenized in buffer (1:1 PBS:ethanol with EDTA-free protease inhibitor tablets [Roche]). All samples were analyzed using LC-MS/MS.
# [6] = molecular target: T3, Norepinephrine transporter (Homo sapiens, UniProt P23975); experiment: SafetyScreen44: norepinephrine transporter; type: binding
# T3 construct: purchased Eurofins Cerep SafetyScreen44
# Dopamine transporter = molecular target: T4, Dopamine transporter (Homo sapiens, UniProt Q01959); experiment: SafetyScreen44: dopamine transporter; type: binding
# T4 construct: purchased Eurofins Cerep SafetyScreen44
# [7] = Plasma levels in rat skin inflammation model; type: in vivo; settings: all doses except 300 mg/kg BID, data not shown
# Description: Other groups received anti–IL-23p19 antibody (Santa Cruz Biotechnology; Catalog #sc-271279LS) or isotype antibody via intraperitoneal injection on Days -1 and 3, as additional controls. On Day 0 through Day 3, rats were anesthetized with isoflurane and injected with 1.5 μg of recombinant rat IL-23 (R&D Systems) in 20 μL PBS, intradermally, in the right ear; controls received an equivalent volume of PBS. Body weight was recorded daily. Thickness of the right (IL-23 injected) ear was measured to the nearest 0.05 mm using calipers (Kroeplin GmbH; Schlüchtern, Germany). Animals were euthanized by CO2 asphyxiation on Day 4. Blood was collected via cardiac puncture, deposited into K2EDTA tubes, and centrifuged at 2000 × g for 20 min. Plasma was collected into 5% volume protease inhibitor and stored at − 80 °C until bioanalysis by LC–MS. For gene expression analyses (IL-22, IL-17A, and IL-17F), the right ear was excised, flash frozen, homogenized, and reverse transcription polymerase chain reaction (RT-PCR) was performed using a TaqMan gene expression array (ThermoFisher Scientific).
# [8] = molecular target: T5, CCK1 (CCKA) (cholecystokinin 1 receptor) (Homo sapiens, UniProt P32238); experiment: SafetyScreen44: CCK1 (CCKA); type: binding
# T5 construct: purchased Eurofins Cerep SafetyScreen44
# T5 sequence (P32238 1-428): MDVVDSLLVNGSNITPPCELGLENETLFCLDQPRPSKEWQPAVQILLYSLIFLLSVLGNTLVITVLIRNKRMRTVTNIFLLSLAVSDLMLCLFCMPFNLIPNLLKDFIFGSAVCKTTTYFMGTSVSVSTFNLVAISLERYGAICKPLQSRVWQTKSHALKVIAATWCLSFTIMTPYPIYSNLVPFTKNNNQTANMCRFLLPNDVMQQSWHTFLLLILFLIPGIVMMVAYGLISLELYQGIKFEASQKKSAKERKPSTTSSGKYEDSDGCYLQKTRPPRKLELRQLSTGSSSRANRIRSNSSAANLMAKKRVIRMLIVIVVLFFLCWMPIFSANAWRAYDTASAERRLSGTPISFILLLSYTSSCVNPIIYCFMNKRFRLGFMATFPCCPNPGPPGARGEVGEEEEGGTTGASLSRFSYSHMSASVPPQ
# [9] = Part 2 (MAD), once daily oral dosing for 10 days
# [10] = male Sprague-Dawley rats, 10 mg/kg oral, n=4/timepoint, homogenate, LC-MS/MS
# [11] = male Sprague-Dawley rats, 10 mg/kg oral, n=4/timepoint, tissue homogenate, LC-MS/MS
# [12] = male, Sprague-Dawley, rat, in vivo, po, 10 mg/kg
# T4 sequence (Q01959 whole entry): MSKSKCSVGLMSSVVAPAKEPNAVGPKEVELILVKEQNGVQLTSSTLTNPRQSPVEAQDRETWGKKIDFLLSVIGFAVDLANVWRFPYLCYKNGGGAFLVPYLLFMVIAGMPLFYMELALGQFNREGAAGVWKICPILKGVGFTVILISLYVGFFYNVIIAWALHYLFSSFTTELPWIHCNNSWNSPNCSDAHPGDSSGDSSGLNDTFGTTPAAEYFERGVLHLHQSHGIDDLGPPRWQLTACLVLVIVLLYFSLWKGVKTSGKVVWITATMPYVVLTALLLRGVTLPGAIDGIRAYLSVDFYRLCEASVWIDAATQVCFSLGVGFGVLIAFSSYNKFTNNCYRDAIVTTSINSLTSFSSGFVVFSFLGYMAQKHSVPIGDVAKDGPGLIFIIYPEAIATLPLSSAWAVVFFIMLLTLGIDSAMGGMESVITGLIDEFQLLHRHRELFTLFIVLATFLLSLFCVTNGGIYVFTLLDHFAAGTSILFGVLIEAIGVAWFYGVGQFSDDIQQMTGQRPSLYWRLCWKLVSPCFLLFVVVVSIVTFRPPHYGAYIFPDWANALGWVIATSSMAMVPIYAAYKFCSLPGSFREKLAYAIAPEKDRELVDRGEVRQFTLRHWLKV
# T3 sequence (P23975 whole entry): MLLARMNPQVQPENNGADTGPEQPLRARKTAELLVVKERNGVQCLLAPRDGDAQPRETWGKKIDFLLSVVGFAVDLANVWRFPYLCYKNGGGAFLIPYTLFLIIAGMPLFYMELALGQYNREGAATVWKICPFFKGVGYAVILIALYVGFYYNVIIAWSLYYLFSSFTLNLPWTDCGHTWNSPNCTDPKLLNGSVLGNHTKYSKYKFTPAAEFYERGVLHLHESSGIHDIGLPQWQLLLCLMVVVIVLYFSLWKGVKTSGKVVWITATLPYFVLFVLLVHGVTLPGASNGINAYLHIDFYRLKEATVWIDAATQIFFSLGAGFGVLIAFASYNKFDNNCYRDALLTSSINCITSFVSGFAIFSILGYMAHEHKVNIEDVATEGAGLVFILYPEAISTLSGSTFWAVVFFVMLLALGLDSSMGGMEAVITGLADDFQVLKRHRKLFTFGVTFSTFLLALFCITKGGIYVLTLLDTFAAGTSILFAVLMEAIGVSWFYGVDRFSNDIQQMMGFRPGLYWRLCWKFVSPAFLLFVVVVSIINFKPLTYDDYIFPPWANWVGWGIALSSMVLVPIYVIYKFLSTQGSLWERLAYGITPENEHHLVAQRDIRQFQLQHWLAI
# T1 sequence (P28223 whole entry): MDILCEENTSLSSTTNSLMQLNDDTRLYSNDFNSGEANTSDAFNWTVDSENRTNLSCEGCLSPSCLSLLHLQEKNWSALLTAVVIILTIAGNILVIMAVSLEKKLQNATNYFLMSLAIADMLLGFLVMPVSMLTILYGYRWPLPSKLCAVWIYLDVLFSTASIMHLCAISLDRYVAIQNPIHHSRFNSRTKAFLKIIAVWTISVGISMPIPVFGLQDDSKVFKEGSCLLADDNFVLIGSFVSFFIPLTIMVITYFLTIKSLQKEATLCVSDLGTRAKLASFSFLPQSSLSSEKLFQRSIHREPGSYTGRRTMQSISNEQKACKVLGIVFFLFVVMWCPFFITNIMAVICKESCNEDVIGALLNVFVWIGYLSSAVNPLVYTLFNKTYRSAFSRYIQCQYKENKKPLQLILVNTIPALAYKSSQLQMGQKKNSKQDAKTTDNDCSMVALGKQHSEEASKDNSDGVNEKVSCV
compound,measurement,setting,value
"CC(=O)NCCCC[C@@H]1NC(=O)[C@H](Cc2c[nH]c3c(C)cccc23)NC(=O)[C@H]([C@@H](C)O)NC(=O)[C@H](CC(N)=O)NC(=O)[C@@H](NC(C)=O)C(C)(C)SSC(C)(C)[C@@H](C(=O)N[C@@H](Cc2ccc(OCCN)cc2)C(=O)N[C@@H](Cc2ccc3ccccc3c2)C(=O)NC2(C(=O)N[C@@H](CCC(=O)O)C(=O)N[C@@H](CC(N)=O)C(=O)N[C@@H](Cc3cccnc3)C(=O)N(C)CC(N)=O)CCOCC2)NC1=O [JNJ-77242113, S^3,1,S^3,6-cyclo[N-acetyl-3-sulfanyl-L-valyl-L-asparaginyl-L-threonyl-7-methyl-L-tryptophyl-N^6-acetyl-L-lysyl-3-sulfanyl-L-valyl-O-(2-aminoethyl)-L-tyrosyl-3-(naphthalen-2-yl)-L-alanyl-4-aminooxan-4-carbonyl-L-α-glutamyl-L-asparaginyl-3-(pyridin-3-yl)-L-alanyl-N^2-methylglycinamide]]",inhibition at 10 µM,"[1]; 1st run, read-out: Percent inhibition of control ligand binding, 5-HT2A, 1st run",7%
same,inhibition at 10 µM,"[1]; 2nd run, read-out: Percent inhibition of control ligand binding, 5-HT2A, 2nd run",3.3%
same,inhibition at 10 µM,"[1]; mean of 2 runs, read-out: Percent inhibition of control ligand binding, 5-HT2A, Mean",5.1%
same,inhibition at 10 µM,"[2]; 1st run, read-out: Percent inhibition of control ligand binding, ETA, 1st run",-31.3%
same,inhibition at 10 µM,"[2]; 2nd run, read-out: Percent inhibition of control ligand binding, ETA, 2nd run",-12.9%
same,inhibition at 10 µM,"[2]; mean of 2 runs, read-out: Percent inhibition of control ligand binding, ETA, Mean",-22.1%
same,Tissue distribution (in words),[3],distributed freely
same,Plasma exposure versus dose (in words),[4]; 100-fold dose range of 10 to 1000 mg oral,Dose-proportional plasma exposure
same,"Accumulation for AUC, Day 1 versus Day 10",[4]; [9],0.9 to 1.5
same,"Accumulation for Cmax, Day 1 versus Day 10",[4]; [9],0.7 to 1.6
same,Estimated terminal elimination half-life,"[4]; oral 10 to 1000 mg, plasma LC–MS/MS",9 to 16 h
same,"AUClast, colon content",[5]; [10],"1,700,000 ng·hr/g"
same,"Cmax, colon content",[5]; [10],"371,000 ng/g"
same,"Tmax, colon content",[5]; [10],6 h
same,"AUClast, colon",[5]; [11],"5,670 ng·hr/g"
same,"Cmax, colon",[5]; [11],"1,380 ng/g"
same,"Tmax, colon",[5]; [11],6 h
same,AUC(0-t),[5]; [12],23.1 ng·h/mL
same,Cmax,[5]; [12],6.49 ng/mL
same,Tmax,[5]; [12],3 h
same,Oral bioavailability,"[5]; rat, oral dosing, data not shown",low oral bioavailability
same,inhibition at 10 µM,"[6]; 1st run, read-out: Percent inhibition of control ligand binding, Norepinephrine transporter, 1st run",-1.3%
same,inhibition at 10 µM,"[6]; 2nd run, read-out: Percent inhibition of control ligand binding, Norepinephrine transporter, 2nd run",-0.6%
same,inhibition at 10 µM,"[6]; mean of 2 runs, read-out: Percent inhibition of control ligand binding, Norepinephrine transporter, Mean",-1%
same,inhibition at 10 µM,"Dopamine transporter; 1st run, read-out: Percent inhibition of control ligand binding, Dopamine transporter, 1st run",-3.6%
same,inhibition at 10 µM,"Dopamine transporter; 2nd run, read-out: Percent inhibition of control ligand binding, Dopamine transporter, 2nd run",-4.4%
same,inhibition at 10 µM,"Dopamine transporter; mean of 2 runs, read-out: Percent inhibition of control ligand binding, Dopamine transporter, Mean",-4%
same,Plasma levels 16 h after the final dose,[7],below the limit of quantification
same,inhibition at 10 µM,"[8]; 1st run, read-out: Percent inhibition of control ligand binding, CCK1 (CCKA), 1st run",-29.4%
same,inhibition at 10 µM,"[8]; 2nd run, read-out: Percent inhibition of control ligand binding, CCK1 (CCKA), 2nd run",-12.3%
same,inhibition at 10 µM,"[8]; mean of 2 runs, read-out: Percent inhibition of control ligand binding, CCK1 (CCKA), Mean",-20.8%
